The subject of series [1] is primary astrocytes. Nature of the series: Intracellular glycogen quantification, Example 2. The settings on record: 10 μM, 3 h (GP-0157: 0.1, 1, 10 μM). Type of series: cell-based, mouse. As for the experimental part:
To assess for the effect of the compounds of the invention, those were tested in primary astrocytes, as described below. Secretion of lactate was measured directly in the extracellular medium, and indirectly through the acidification of extracellular medium using extracellular pH sensor SNARE-5F-(AND-6)-CAR (SNARF5). Glucose uptake was measured by quantification 2-deoxyglucose in the cell. Cell Cultures Primary cultures of cerebrocortical astrocytes were obtained from 1 to 2-day-old OF1 mouse pups (Charles River). Briefly, cortices were isolated and minced in small pieces under a dissecting microscope. The cells were incubated for 30 min at 37° C. in a solution containing 20 U/ml papain, 1 mM L-cysteine and 10 kU/ml DNase I. After dissociation, papain activity was stopped by the addition of fetal calf serum (FCS). Single-cell suspension was then obtained by mechanical dissociation, which consisted in cells trituration in a DMEM D7777 medium supplemented with 44 mm NaHCO3, 10 ml/L antibiotic/antimycotic solution and 10% FCS. The cells were seeded at an average density of ˜10'000 cells/cm2 on poly-D-lysine coated 96- or 12-well culture plates, depending on their use, and grown in DMEM D7777 medium supplemented with 44 mm NaHCO3, 10 ml/L antibiotic/antimycotic solution and 10% FCS at 37° C. in a humidified atmosphere containing 5% CO2/95% air. Culture medium was renewed twice a week. Cells were stimulated and harvested between DIV14 and DIV17, when confluence and cell growth were optimal. Extracellular Medium Acidification (SNARF5) Secretion of lactate was measured indirectly through the acidification of extracellular medium using extracellular pH sensor […] (SNARF5). After washing cells twice with stimulation medium (DMEM (D5030, Sigma), 1 mM NaHCO2, and 5 mM Glucose, pH 7.4) at 37° C., cells were stimulated with compounds at a final concentration ranging from 10 nM to 30 μM in 50 μl per well of stimulation medium supplemented with 10 μM of SNARF5 (Life Technologies Corporation). Each compound was tested in two different plates for duplicates. After 90 min stimulation, fluorescence was read at exc. (excitation) 480 nm/emm. (emission) 580 nm and at exc 480 nm/emm. 630 nm. The ratio of fluorescence between 630 nm and 580 emission values, which is proportional to extracellular pH, was calculated. In each plate, 8 wells were used for negative controls (DMSO 0.1%) and 8 wells were used for positive controls (CCCP 2 μM in DMSO). The extracellular medium acidification in primary mouse astrocytes treated with GP-A1 was quantified (FIG. 13). Extracellular medium acidification was measured over a period of 1.5 h and 3 h. […] Extracellular Lactate Quantification Secretion of L-lactate was measured in the extracellular medium of 96-well plated astrocytes after 90 min stimulation (at 37° C., in 5% CO2/95% air conditions) with Vehicle (DMSO), the compounds of the invention (100 nM to 100 μM) or positive control. […] Stimulation medium was composed of D5030 medium complemented with 5 mM D-glucose and 44 mM sodium bicarbonate, pH 7.2. To quantify lactate concentrations in the extracellular medium, 200 μl of a 0.2M Glycine-semicarbazide buffer (pH 10) containing 3 mM NAD and 14 U/ml LDH was added to each well of a 96-well plate containing 30 μl aliquots of extracellular medium. Samples were incubated at 37° C. for 1 h. Fluorescence intensity (340 nm excitation/450 nm emission), which represents the amount of NADH produced, was measured, and lactate concentration values were determined relative to a standard curve of L-lactate concentrations. The release of lactate from primary mouse astrocytes treated with GP-A1 was quantified (FIG. 5A and FIG. 14). Accumulation of lactate in the extracellular medium was measured over a period of 1.5 h. […] Intracellular Glycogen Quantification Astrocytes grown on 12-well plates were used for intracellular glycogen quantifications. […]

In series [2] the test system is astrocytes. Nature of the series: Intracellular glycogen quantification. Conditions: CDC54K hits; 10 uM, 3 h. Format: cell-based, mouse.
Series [3] deals with astrocytes. Nature of the series: Intracellular glycogen quantification. Format: cell-based, mouse. Conditions: Prestwick hits; 10 uM, 3 h. As for the experimental part:
For glycogen dosage, a protein dosage was first performed in order to assess whether harvested astrocytes from primary cell cultures yielded enough and equivalent amounts of proteins comparing each replicate, and to ensure that the obtained differences in glycogen quantities were due to drug action and not to inner protein quantities.
Astrocytes used for these dosages were previously grown in 6-well plates for 17 days and stimulated with Vehicle (DMSO) or drug of interest (1 μM to 100 μM) for 180 min, at 37° C. 5% CO2/95% air in D5030 complete medium. Medium was removed and replaced with 600 μl of 30 mM Tris HCl, and stored at −20° C.
Proteins were dosed using the micro BCA Protein Assay kit (Thermo Scientific), as described in the manufacturer's instructions. Briefly, thawed cells were sonicated and 5 μl aliquots were placed in a transparent 96-well plate, to which we added 25 μl 30 mM Tris HCl, 70 μl H2O and 100 μl of a BCA mix (made as described in manufacturer's guidelines). After a 120 min-incubation at 37° C., absorbance was measured with Safire 2 spectrophotometer at a wavelength of 562 nm, and protein quantities were determined from a standard curve of Bovine Serum Albumin (BSA).
Glycogen was quantified using a 250 μl-aliquot of the same stimulated, thawed, and sonicated cells. After an incubation period of 30 min at 90° C. and 400 rpm, 28 μl of an acetic acid/sodium acetate (both from Sigma) 0.1M pH 4.6 buffer was added to each aliquot, which was then separated in two. Each split aliquot received whether 5 μl of amyloglucosidase (Roche) or 5 μl H2O, and all cell solutions were incubated for 120 min in a shaking 37° C.-waterbath. After a centrifugation at 16'000 G for 5 min, 20 μl of supernatant were placed 96-well plate, to which 150 μl of a mix containing 0.67 mM ATP (Roche), 0.67 mM NADP (Roche), 1.8% hexokinase/glucose-6-phosphate dehydrogenase (Roche) and 0.1M Tris Buffer-HCl/3.3 mM magnesium (Fluka)/pH 8.1 buffer was added. Fluorescence was measured with Safire 2 spectrophotometer (340 nm excitation/440 nm emission). Glycogen concentration was obtained by subtracting glucose value of samples with amyloglucosidase to samples without amyloglucosidase, and were expressed relative to the amount of proteins previously determined.
Levels of intracellular glycogen in astrocytes were measured at 3 h after stimulation with 20 hits from the Prestwick library (10 μM each), as shown in FIG. 2. n=6-10; Ctrl pos. is glutamate (0.5 mM). Statistical analysis consisted in ANOVA followed by Fisher LSD post-hoc test for pair-wise comparisons.
Statistical analysis consisted in ANOVA followed by Fisher LSD post-hoc test for pair-wise comparisons.

Series [4] can be described thus: In vivo pharmacokinetics (PFC microdialysis and plasma). Details: species or system mouse. The settings on record: after gavage with 100 mg/kg. As for the experimental part: Mice were anesthetized using isoflurane (2% and 800 mL/min O2). Before surgery, Finadyne (1 mg/kg, s.c.) was administered for analgesia during surgery and the post-surgical recovery period. A mixture of bupivacaine and epinephrine was used for local anesthesia of the incision site of the periost of the skull.
The animals were placed in a stereotaxic frame (Kopf instruments, USA). MetaQuant microdialysis probes with a 3 mm exposed polyacrylonitrile membrane (MQ-PAN 3/3, Brainlink, the Netherlands) were implanted into the prefrontal cortex (coordinates for the tip of the probe: AP=+2.0 mm (to bregma), lateral=−0.7 mm (to midline), ventral=−3.3 mm (to dura), with the incisor bar set at 0.0 mm and an angle of 8°). All coordinates were based on “The mouse brain in stereotaxic coordinates” by Paxinos and Franklin (2004). The probes were attached to the skull with a stainless steel screw and dental cement (Fuji Plus Capsules, Henry Schein, the Netherlands).
In the same surgical procedure, a catheter was placed into the jugular vein to accommodate blood sampling. An indwelling cannula was inserted into the right jugular vein, and exteriorized through an incision on top of the skull. The end of the jugular vein catheter was fixed in position with dental acrylic cement and attached to the skull with two stainless steel screws.
Experiments were initiated one day after surgery. The MetaQuant microdialysis probes were connected with flexible PEEK tubing (Western Analytical Products Inc. USA; PK005-020) to a microperfusion pump (CMA Microdialysis) and perfused with aCSF+0.2% BSA at a flow rate of 0.12 μL/min. Ultrapurified water+0.2% BSA was used as the carrier flow at a flow rate of 0.80 μL/min. After a minimum of 1.5 hours of prestabilization, microdialysis samples were collected in 30 minute intervals. Samples were collected into polystyrene microvials (Microbiotech/se AB, Sweden; 4001029) using an automated fraction collector (UV 8301501, TSE, Univentor, Malta). After collection of three basal samples, at t=0 minutes, drug of interest was administered per os. Eight additional samples were collected after compound administration. All samples were stored at −80° C. until off-line analysis.
In parallel, blood samples (50 μL) were taken from the jugular vein through the cannula. These samples were collected at specified intervals into vials containing 5 μL heparin (500 IE/mL in saline). The samples were mixed by inverting the tubes and, subsequently, centrifuged at 4000 rpm (1500×g) for 10 min at 4° C. The supernatant was stored as plasma in 1.5 mL Eppendorf vials (Sarstedt, Germany) at −80° C. until off-line analysis.
At the end of the experiment, the animals were euthanized and terminal brain tissue was collected for visual histological verification of the probe positions.
PK was measured for GP-04, GP-05, GP-07, GP-R1 and GP-P1 in the PFC (prefrontal cortex) and plasma of wild type C56Bl/6 mice by CRO Brainsonline.

For series [5], the system named is cerebral extracellular lactate. Nature of the series: In vivo pharmacodynamics: lactate biosensors in cortex. Also noted: species or system mouse. As to the method: Extracellular levels of lactate were monitored in vivo using lactate biosensors (Pinnacle Technology), according to the manufacturer's instructions. Cannulae were surgically implanted in mice cerebral cerebral motor cortex areas M1/M2 (coordinates: +1.94 mm (to bregma), lateral −1.4 mm (to mideline), ventral −1.0 mm (to dura)) 5-7 days before administration of the compounds. Drugs were administered per os as previously described, and cerebral levels of extracellular lactate were dynamically recorded for 6 hours. Mice were administered vehicle alone first, followed 3 hours later by vehicle or drug (10 or 100 mg/kg). Area Under the Curve (AUC) quantifying the fluctuations of extracellular lactate concentrations for each of the compound tested was calculated using Graphad Prism and the ratio of AUC after drug over Vehicle administration was calculated. Groups of 8 male mice were used for each condition.
To measure biological effect of lead molecules in vivo in the brain, lactate levels were quantified after administration of the drug by using lactate biosensors implanted in the cortex of freely moving mice.

Series [6] deals with C57Bl/6 male and female mice. Nature of the series: In vivo chronic toxicity (28 days). The settings on record: 10 mg/kg per os once a day, 28 days. As to the method: During this period, clinical symptoms and weight were recorded.
Chronic toxicity was assessed.

Where a name gives a salt, the structure may show the parent alone.

As to `c1ccc2c(c1)CCN(c1ncnc3sccc13)C2` [T0517-8250], in series [1], the “mobilization of intracellular glycogen” value is listed as “significantly enhance the mobilization of intracellular glycogen”.

Consider `CCn1nccc1-c1csc(S(=O)(=O)Nc2ccc(Cl)cc2F)c1` [L924-1031], for which the “mobilization of intracellular glycogen” value in series [1] is “significantly enhance the mobilization of intracellular glycogen”.

`O=C1CCCN1c1ccc(S(=O)(=O)Nc2cccc(/C=C/c3ccccn3)c2)cc1` [T5644989]: the “mobilization of intracellular glycogen” value in series [1] is “significantly enhance the mobilization of intracellular glycogen”. `COc1cccc(CNS(=O)(=O)c2ccc3c(c2)CCCN3C(C)=O)c1` [T5967389]: in series [2], the “Glycogen (statistical significance of glycogen degradation)” value is recorded as “* (*p<0.05)”. With `N=C(N)N1CCc2ccccc2C1` [Debrisoquin sulfate], in series [3], the “Glycogen (statistical significance of glycogen degradation)” value was “**** (****p<0.0001)”. Also, the “levels in the PFC” value in series [4] was “at therapeutic range (100 nM to 1 uM) and sustained over several hours”. Besides, the “cerebral lactate (AUC ratio vs vehicle)” value in series [5] (10 mg/kg per os) is on record as “Significant increase”. As for `CC(=O)N1CCc2sc(S(=O)(=O)N3CCN(c4ccccc4C)CC3)cc2C1` [P025-0159], in series [1], the “mobilization of intracellular glycogen” value was “significantly enhance the mobilization of intracellular glycogen”. The “levels in the PFC” value in series [4] is reported as “need chemical improvement to reach their target at therapeutic dose in the brain”. Further, in series [5] (100 mg/kg per os), the “cerebral lactate (AUC ratio vs vehicle)” value is on record as “Significant increase”.

Consider `Cc1ccccc1NC(=O)C1CCCN(c2ncnc3oc(C)c(C)c23)C1` (stereo not drawn) [F228-0422], for which the “mobilization of intracellular glycogen” value in series [1] is listed as “significantly enhance the mobilization of intracellular glycogen”.

As for `CCc1nc(-c2csc(S(=O)(=O)NCc3ccc4c(c3)OCO4)c2)no1` [L287-0468], the “mobilization of intracellular glycogen” value in series [1] is “significantly enhance the mobilization of intracellular glycogen”. `Cc1nc2ccc(NS(=O)(=O)c3cccc(F)c3)cc2s1` [T6937001]: the “mobilization of intracellular glycogen” value in series [1] is given as “significantly enhance the mobilization of intracellular glycogen”.

Turning to `C[N+]1(C)CCC(=C(c2ccccc2)c2ccccc2)CC1` [Diphemanil methylsulfate], the “chronic toxicity (toxic or safe)” value in series [6] is recorded as “safe”. Also, the “Glycogen (statistical significance of glycogen degradation)” value in series [3] is recorded as “**** (****p<0.0001)”. Moreover, the “levels in the PFC” value in series [4] is “at therapeutic range (100 nM to 1 uM) and sustained over several hours”. In addition, the “cerebral lactate (AUC ratio vs vehicle)” value in series [5] (10 mg/kg per os) is “Significant increase”. `COc1cc(C)c(Cl)cc1S(=O)(=O)NCc1ccncc1` [T5580243]: the “levels in the PFC” value in series [4] is “at therapeutic range (100 nM to 1 uM) and sustained over several hours”. Besides, in series [5] (100 mg/kg per os), the “cerebral lactate (AUC ratio vs vehicle)” value is on record as “Significant increase”. Consider `N#Cc1ccc(C(=O)N2CCC(Nc3ncnc4c3CCC4)C2)cc1` (stereo not drawn) [T636-2387], for which the “mobilization of intracellular glycogen” value in series [1] is “significantly enhance the mobilization of intracellular glycogen”. Further, in series [5] (100 mg/kg per os), the “cerebral lactate (AUC ratio vs vehicle)” value is on record as “Significant increase”.
